Measurements taken from US9572881B2, “Halogenated compounds for photodynamic therapy” (Nanoquantum Sciences, Inc., priority 2012, dated 2017).
“And” between values parts separate entries of the source, which are not always exact repeats. Identical values can stand only once.

Key:
[1] = cited from earlier work
[2] = Fluorescence emission spectra and quantum yield relative to HITC; assay type: physicochemical; conditions: for QY (fluor): given as fraction in synthesis example
Description: Fluorescence spectra for the dyes were determined at RT on a Varian Cary Eclipse spectrofluorometer in a standard 1-cm quartz cell. The spectra were corrected. All concentrations of the fluorophores were chosen to be between 0.2 and 1.0 μM.
For the determination of the quantum yields (QY), the integrated relative intensities of the dyes or dye-protein conjugates, were measured against HITC as the reference. All absorbances at excitation wavelength (λexc) were in the range of 0.04-0.08 (when measured in a 1-cm cell).
The QY of each sample was independently measured 3-4 times and the average value was calculated.

[3] = Absorption spectra and extinction coefficients of dyes; assay type: physicochemical
Description: Absorption spectra were measured at RT on a Perking Elmer Lambda 35 UV/Vis spectrophotometer. […] The stock solution was diluted (1:2000) and the absorbance was measured in a 5-cm standard quartz cell. All dye concentrations were in the range of 1.1 to 2.0×10^−7 M. The extinction coefficients were calculated according to Lambert-Beer's law.

[4] = Phototoxicity (glow lamp) and dark toxicity by hemolysis of bovine erythrocytes; assay type: cell-based; conditions: bovine, bovine erythrocytes, Glow Lamp; for hemolysis at 30 min, 0.5 µM: exposure 30 min
Description: (§1) Bovine erythrocytes were isolated from blood plasma stored with sodium citrate. 1 mL of bovine blood was treated at centrifuge (3,000 rpm) for 10 min to precipitate erythrocytes. The supernatant was decanted, 2 mL of physiological solution were added, treated and erythrocytes were precipitated with centrifuge. The washing procedure was repeated for 3 times and the precipitated erythrocytes were collected. […] Cells were dye-incubated for 45 minutes at 37° C. in the dark. Then the examined suspensions of cells (erythrocytes) were placed at a distance of 30-cm from a 250 W glow red-lamp equipped with a water-based heat filter and irradiated with occasional stirring. After irradiation, cells were stored at 4° C. for 15 hours. […] The hemolysis level (percentage of hemolyzed cells) was determined as the ratio of absorbances of the supernatant and a solution of 100% hemolysed cells. The 100% hemolysis was taken as the value obtained when the given number of erythrocytes were suspended in distilled water.

[5] = system: bovine erythrocytes; assay: as above; assay type: cell-based; conditions: Dark
Description: as §1

[6] = Singlet oxygen quantum yield, DPBF scavenger method in ethanol; assay type: physicochemical; conditions: measured in ethanol, 650 nm laser, ICG reference
[7] = ethanol; reference value from Cardillo et al.; cited from earlier work
[8] = background statement, at ~780 nm; cited from earlier work

## CN1\C(=C/C=C/C=C/C=C/C2=[N+](C)c3ccccc3C2(C)C)C(C)(C)c2ccccc21.[I-] [HITC, 1,1′,3,3,3′,3′-hexamethylindotricarbocyanine, reference compound]
[1]; in methanol, reference standard
  QY of reference: 28%
[2]; Methanol
  Emission max.: 768 nm
  Fluorescence quantum yield: 28%
[3]; Methanol
  Absorption max.: 740 nm
[4]; 1 μM, exposure 60 min
  hemolysis at 60 min, 1 µM: 4.4%
[4]; 1 μM, exposure 120 min
  hemolysis at 120 min, 1 µM: 5.4%
[4]; 5 μM, exposure 60 min
  hemolysis at 60 min, 5 µM: 65%
[4]; 5 μM, exposure 120 min
  hemolysis at 120 min, 5 µM: 74%
[5]; 5 μM
  Hemolysis: 2.0%
[5]; 10 μM
  Hemolysis: 6.7%
[6]
  Singlet oxygen generation quantum yield ΦΔ: 5%

## CN1\C(=C/C=C/C=C/C=C/C2=[N+](C)c3cc(I)c(I)c(I)c3C2(C)C)C(C)(C)c2c1cc(I)c(I)c2I.[I-] [I-76, 4,5,6-triiodo-1,3,3-trimethyl-2-[7-(4,5,6-triiodo-1,3,3-trimethyl-2,3-dihydro-1H-2-indolyliden)-1,3,5-heptatrienyl]-3H-indolium iodide]
[2]; Methanol
  Emission max.: 785 nm
  Fluorescence quantum yield: 43%
[3]; Methanol
  Absorption max.: 754 nm and 755 nm
[4]; exposure 60 min
  hemolysis at 60 min, 0.1 µM: 43%
[4]
  hemolysis at 30 min, 0.5 µM: 46%
[5]; 5 μM
  Hemolysis: 2%
[5]; 50 μM
  Hemolysis: 12%
[6]
  Singlet oxygen generation quantum yield ΦΔ: 50%

## CC1(CCCCCC(=O)O)C(/C=C/C=C/C=C/C=C2\N(CCCS(=O)(=O)O)c3cc(I)c(I)c(I)c3C2(C)CCCCCC(=O)O)=[N+](CCCS(=O)(=O)[O-])c2cc(I)c(I)c(I)c21 (stereo not drawn) [I-86, 3-(3-(5-carboxypentyl)-2-7-[3-(5-carboxypentyl)-4,5,6-triiodo-3-methyl-1-(3-sulfopropyl)-2,3-dihydro-1H-2-indolyliden]-1,3,5-heptatrienyl-4,5,6-triiodo-3-methyl-3H-1-indoliumyl)-1-propanesulfonate]
[2]; BSA conjugate
  Emission max.: 796 nm
[2]; BSA conjugate, subject to D/P
  Fluorescence quantum yield: 5-7%
[2]; Methanol
  Emission max.: 795 nm
  Fluorescence quantum yield: 44%
[2]; Water
  Emission max.: 786 nm
[2]; methanol
  QY (fluor): 0.44
[2]; water
  QY (fluor): 0.006
[3]; BSA conjugate
  Absorption max.: 778 nm
[3]; Methanol
  Absorption max.: 765 nm
  Extinction Coefficient: 210,000 M^−1cm^−1
[3]; Water
  Absorption max.: 721 nm and 760 nm
  Extinction Coefficient: 100,000 M^−1cm^−1
[3]; water, synthesis example, no unit
  Extinction coefficient ε at λmax (abs): 210,000
[4]; exposure 60 min
  hemolysis at 60 min, 0.1 µM: 70%
[4]
  hemolysis at 30 min, 0.5 µM: 74%
[5]; 10 μM
  Hemolysis: 3%
[6]
  Singlet oxygen generation quantum yield ΦΔ: 13%

## CC1(C)C(/C=C/C=C/C=C/C=C2\N(CCCCS(=O)(=O)[O-])c3ccc4ccccc4c3C2(C)C)=[N+](CCCCS(=O)(=O)[O-])c2ccc3ccccc3c21.[Na+] [ICG, Indocyanine green, reference compound]
[1]; in water, background statement
  quantum yield (reporter): 0.5-1.3%
[2]; Methanol
  Emission max.: 818 nm
  Fluorescence quantum yield: 16%
[2]; Water
  Emission max.: 810 nm
[7]
  singlet oxygen quantum yield ΦΔ of reference: 12%
[3]; Methanol
  Extinction Coefficient: 200,000 M^−1cm^−1
[3]; Water
  Extinction Coefficient: 114,000 M^−1cm^−1
[6]
  Singlet oxygen generation quantum yield ΦΔ: 12%
[8]
  extinction coefficients: 200,000 M^−1 cm^−1
